ChEMBL document CHEMBL3112401, “Activity of diimidazoline amides against African trypanosomiasis” (Bioorg Med Chem Lett, 2014)
Active and inactive are the calls of the source. The rule behind the calls is not given here.

Legend:
[1] = test system: Trypanosoma brucei rhodesiense; test: Antitrypanosomal activity against Trypanosoma brucei rhodesiense STIB900 assessed as parasite growth inhibition after 70 hrs by Alamar blue assay; format: functional, organism-based; conditions: STIB900, 70 h
L6 = test: Cytotoxicity against rat L6 cells assessed as cell viability after 70 hrs by MTT assay; format: cell-based; conditions: L6, 70 h
Mus musculus = test: Toxicity in mouse infected with Trypanosoma brucei rhodesiense at 50 mg/kg, ip measured after day 3; format: organism-based; parameters: dose 50 mg/kg, route intraperitoneal; conditions: in vivo
[2] = test system: Trypanosoma brucei rhodesiense; test: Antitrypanosomal activity against Trypanosoma brucei rhodesiense infected in mouse assessed as cure rate at 40 mg/kg, ip administered on day 1 to 3 relative to control; format: functional; conditions: route intraperitoneal
[3] = test system: Trypanosoma brucei rhodesiense; test: Antitrypanosomal activity against Trypanosoma brucei rhodesiense infected in mouse assessed as survival more than 60 days without parasitemia relapse at 50 mg/kg, ip administered on day 3 to 6; format: functional, organism-based; parameters: dose 50 mg/kg
[4] = test system: Trypanosoma brucei rhodesiense; test: Antitrypanosomal activity against Trypanosoma brucei rhodesiense infected in mouse assessed as mean survival days at 50 mg/kg, ip administered on day 3 to 6 (reference value: 6 to 10 days); format: functional; conditions: route intraperitoneal

SMILES | IC50 [1] [µM] | IC50 (L6) [µM] | Activity (Mus musculus) | Activity [2] [%] | Activity [3] | MSD [4] [days]
CS(=O)(=O)O.O=C(NCc1ccc(C2=NCCN2)cc1)c1ccc(-c2cc3ccc(C4=NCCN4)cc3[nH]2)cc1 | 0.0015 | 41 | Toxic | 100 | inactive | 
CS(=O)(=O)O.O=C(Nc1ccc(C2=NCCN2)cc1)c1ccc(NC(=O)c2ccc(C3=NCCN3)cc2)cc1 | 0.011 | 50 | Non-toxic | 100 | Active | >60
O=C(NCc1ccc(C2=NCCN2)cc1)c1cccc(C(=O)NCc2ccc(C3=NCCN3)cc2)c1 | 64 | > 150 |  |  |  | 
O=C(N[C@H]1CC[C@H](NC(=O)c2ccc(C3=NCCN3)cc2)CC1)c1ccc(C2=NCCN2)cc1 | 0.69 | 130 |  |  |  | 
CS(=O)(=O)O.O=C(Nc1ccc(C2=NCCN2)cc1)c1ccc(-c2ccc(C(=O)Nc3ccc(C4=NCCN4)cc3)cc2)cc1 | 0.019 | > 150 | Non-toxic | 100 | inactive | 11
Nc1nc(N)nc(Nc2ccc([As]3SCC(CO)S3)cc2)n1 (stereo unspecified) [MELARSOPROL] | 0.0038 | 19 |  |  |  | 
CS(=O)(=O)O.O=C(Nc1ccc(C2=NCCN2)cc1)c1ccc(C2=NCCN2)cc1 | 0.086 | 68 | Non-toxic | 100 |  | 34
CS(=O)(=O)O.O=C(Nc1cccc(C(=O)Nc2ccc(C3=NCCN3)cc2)c1)c1ccc(C2=NCCN2)cc1 | 0.12 | 99 | Non-toxic | 100 | Active | >60
CS(=O)(=O)O.O=C(Nc1ccc(C2=NCCN2)cc1)c1ccc(C(=O)Nc2ccc(C3=NCCN3)cc2)cc1 | 0.0047 | 110 |  | 100 |  | 39
CS(=O)(=O)O.O=C(Nc1ccc(NC(=O)c2ccc(C3=NCCN3)cc2)cc1)c1ccc(C2=NCCN2)cc1 | 0.12 | 92 | Non-toxic | 100 | Active | >60
O=C(NCc1ccccc1)c1ccc(-c2cc3ccc(C4=NCCN4)cc3[nH]2)cc1 | 2.2 | 110 |  |  |  | 
O=C(Nc1ccc(C2=NCCN2)cc1)c1ccc(-c2cc3ccc(C4=NCCN4)cc3[nH]2)cc1 | 0.0022 | 19 |  | 100 |  | 
N=C(N)c1ccc(OCCCCCOc2ccc(C(=N)N)cc2)cc1 [PENTAMIDINE ISETHIONATE] | 0.0015 | 5.1 |  |  |  | 
O=C(NCc1ccncc1)c1ccc(-c2cc3ccc(C4=NCCN4)cc3[nH]2)cc1 | 0.023 | 89 |  | 100 |  | 
O=C(NCc1ccc(C2=NCCN2)cc1)c1ccc(C(=O)NCc2ccc(C3=NCCN3)cc2)cc1 | 9.5 | 92 |  |  |  | 
CS(=O)(=O)O.O=C(Nc1ccc(C2=NCCN2)cc1)c1cccc(C(=O)Nc2ccc(C3=NCCN3)cc2)c1 | 0.051 | 120 |  | 100 | Active | >60
